Results taken from patent US6215002A, “Pyrrolopyrrolone derivatives as inhibitors of neutrophil elastase” (priority 1996, dated 2001).
Structures can show the parent of a compound that is named as a salt.

Target: T1, human neutrophil elastase (Homo sapiens, UniProt P08246)
T1 sequence (P08246 30-267): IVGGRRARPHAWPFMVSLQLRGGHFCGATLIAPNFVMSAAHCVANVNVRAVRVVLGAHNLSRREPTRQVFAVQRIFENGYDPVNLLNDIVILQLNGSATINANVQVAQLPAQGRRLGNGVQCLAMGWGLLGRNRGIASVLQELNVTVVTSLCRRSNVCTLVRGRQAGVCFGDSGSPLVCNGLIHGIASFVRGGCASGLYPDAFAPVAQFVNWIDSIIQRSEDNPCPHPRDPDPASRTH
Test: In vitro assay of human neutrophil elastase (HNE)
Type: biochemical
Conditions: 118 nM purified human neutrophil elastase, pH 8.6, 15 min incubation at 30° C., MeO-succinyl-alanyl-alanyl-prolyl-valyl-p-nitroanilide substrate; read-out: HNE IC50
Method in brief: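 Residual activity was taken as the 10 min rate of absorbance rise at 405 nm after adding 0.6 mM MeO-succinyl-AAPV-p-nitroanilide. Curve fitting of activity against concentration gave IC50.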

Row | IC50 [nM] | SMILES
1 | 169 | CCC[C@H]1C(=O)N(S(C)(=O)=O)[C@H]2CCN(C(=O)CN(CC)CC)[C@H]12 (relative stereo) [Example 101, rel-(3R,3aR,6aS)-4-Diethylaminoacetyl-1-methanesulfonyl-3-propyl-hexahydro-pyrrolo[3,2-b]pyrrol-2-one hydrochloride]
2 | 111 | CCC[C@H]1C(=O)N(S(=O)(=O)c2ccc3ccccc3c2)[C@H]2CCN(S(=O)(=O)CCCCN3CCOCC3)[C@H]12 (relative stereo) [Example 11, rel-(3R,3aR,6aS)-4-(4-Morpholin-4-yl-butane-1-sulfonyl)-1-(naphthalene-2-sulfonyl)-3-propyl-hexahydro-pyrrolo[3,2-b]pyrrol-2-one]
3 | 531 | C=CC[C@H]1C(=O)N(S(=O)(=O)c2ccccc2)[C@H]2CCN(C(=O)OCc3ccccc3)[C@H]12 (relative stereo) [Example 45, rel-(3aS,6R,6aR)-6-Allyl-4-benzenesulfonyl-5-oxo-hexahydro-pyrrolo[3,2-b]pyrrole-1-carboxylic acid benzyl ester]
4 | 408 | C=CC[C@H]1C(=O)N(S(=O)(=O)CCc2ccccc2)[C@H]2CCN(C(=O)OCc3ccccc3)[C@H]12 (relative stereo) [Example 43, rel-(3aS,6R,6aR)-6-Allyl-5-oxo-4-(2-phenyl-ethanesulfonyl)-hexahydro-pyrrolo[3,2-b]pyrrole-1-carboxylic acid benzyl ester]
5 | 55 | CCC[C@H]1C(=O)N(S(C)(=O)=O)[C@H]2CCN(C(=O)CCCCCN3CCCCC3)[C@H]12 (relative stereo) [Example 74, rel-(3R,3aR,6aS)-1-Methanesulfonyl-4-(6-piperidin-1-yl-hexanoyl)-3-propyl-hexahydro-pyrrolo[3,2-b]pyrrol-2-one hydrochloride]
6 | 26 | CCC[C@H]1C(=O)N(S(C)(=O)=O)[C@H]2CCN(S(=O)(=O)c3ccc(C#N)cc3)[C@H]12 (relative stereo) [Example 218, rel-4-(4-Methanesulfonyl-5-oxo-6R-propyl-hexahydro-(3aS,6aR)-pyrrolo[3,2-b]pyrrole-1-sulfonyl)-benzonitrile]
7 | 136 | CCC[C@H]1C(=O)N(S(C)(=O)=O)[C@H]2CCN(C(=O)CNC)[C@H]12 (relative stereo) [Example 110, rel-(3R,3aR,6aS)-1-Methanesulfonyl-4-methylaminoacetyl-3-propyl-hexahydro-pyrrolo[3,2-b]pyrrol-2-one trifluoroacetate]
8 | 125 | CCC[C@H]1C(=O)N(S(=O)(=O)c2cccc3ccccc23)[C@H]2CCN(S(=O)(=O)CCCN3CCOCC3)[C@H]12 (relative stereo) [Example 36, rel-(3R,3aR,6aS)-4-(3-Morpholin-4-yl-propane-1-sulfonyl)-1-(naphthalene-1-sulfonyl)-3-propyl-hexahydro-pyrrolo[3,2-b]pyrrol-2-one]
9 | 10 | CCC[C@H]1C(=O)N(S(C)(=O)=O)[C@H]2CCN(S(=O)(=O)c3ccc(C(=O)N(C)C)cc3)[C@H]12 (relative stereo) [Example 126, rel-4-(4-Methanesulfonyl-5-oxo-6R-propyl-hexahydro-(3aS,6aR)-pyrrolo[3,2-b]pyrrole-1-sulfonyl)-N,N-dimethyl-benzamide]
10 | 107 | CCC[C@H]1C(=O)N(S(C)(=O)=O)[C@H]2CCN(S(=O)(=O)c3cccc([N+](=O)[O-])c3)[C@H]12 (relative stereo) [Example 222, rel-(3R,3aR,6aS)-1-Methanesulfonyl-4-(3-nitro-benzenesulfonyl)-3-propyl-hexahydro-pyrrolo[3,2-b]pyrrol-2-one]
11 | 9 | CCC[C@H]1C(=O)N(S(C)(=O)=O)[C@H]2CCN(C(=O)c3ccc(S(C)(=O)=O)cc3)[C@H]12 (relative stereo) [Example 245, rel-(3R,3aR,6aS)-1-Methanesulfonyl-4-(4-methanesulfonyl-benzoyl)-3-propyl-hexahydro-pyrrolo[3,2-b]pyrrol-2-one]
12 | 87 | CCC[C@H]1C(=O)N(S(C)(=O)=O)[C@H]2CCN(S(=O)(=O)c3ccc(C(F)(F)F)cc3)[C@H]12 (relative stereo) [Example 216, rel-(3R,3aR,6aS)-1-Methanesulfonyl-3-propyl-4-(4-trifluoromethyl-benzenesulfonyl)-hexahydro-pyrrolo[3,2-b]pyrrol-2-one]
13 | 94 | C=CC[C@H]1C(=O)N(S(=O)(=O)/C=C/c2ccccc2)[C@H]2CCN(C(=O)OCc3ccccc3)[C@H]12 (relative stereo) [Example 44, rel-(3aS,6R,6aR)-6-Allyl-5-oxo-4-(2-phenyl-(E)-ethenesulfonyl)-hexahydro-pyrrolo[3,2-b]pyrrole-1-carboxylic acid benzyl ester]
14 | 29 | CC(C)[C@H]1C(=O)N(S(C)(=O)=O)[C@H]2CCN(S(=O)(=O)c3ccc(N)cc3)[C@H]12 (relative stereo) [Example 237, rel-(3R,3aR,6aS)-4-(4-Amino-benzenesulfonyl)-3-isopropyl-1-methanesulfonyl-hexahydro-pyrrolo[3,2-b]pyrrol-2-one]
15 | 60 | CCC[C@H]1C(=O)N(S(=O)(=O)c2ccc3ccccc3c2)[C@H]2CCN(S(=O)(=O)CCCN3CCOCC3)[C@H]12 (relative stereo) [Example 12, rel-(3R,3aR,6aS)-4-(3-Morpholin-4-yl-propane-1-sulfonyl)-1-(naphthalene-2-sulfonyl)-3-propyl-hexahydro-pyrrolo[3,2-b]pyrrol-2-one]
16 | 80 | CCC[C@H]1C(=O)N(S(C)(=O)=O)[C@H]2CCN(C(=O)CCCCCCCCCN3CCN(C)CC3)[C@H]12 (relative stereo) [Example 69, rel-(3R,3aR,6aS)-1-Methanesulfonyl-4-[10-(4-methyl-piperazin-1-yl)-decanoyl]-3-propyl-hexahydro-pyrrolo[3,2-b]pyrrol-2-one dihydrochloride]
17 | 9 | CCC[C@H]1C(=O)N(S(C)(=O)=O)[C@H]2CCN(C(=O)c3ccccn3)[C@H]12 (relative stereo) [Example 238, rel-(3R,3aR,6aS)-1-Methanesulfonyl-3-propyl-4-(pyridine-2-carbonyl)-hexahydro-pyrrolo[3,2-b]pyrrol-2-one]
18 | 60 | CCC[C@H]1C(=O)N(S(=O)(=O)c2ccc3ccccc3c2)[C@H]2CCN(S(C)(=O)=O)[C@H]12 (relative stereo) [Example 22, rel-(3R,3aR,6aS)-4-Methanesulfonyl-1-(naphthalene-2-sulfonyl)-3-propyl-hexahydro-pyrrolo[3,2-b]pyrrol-2-one]
19 | 91 | CCC[C@H]1C(=O)N(S(C)(=O)=O)[C@H]2CCN(C(=O)CN(C)C)[C@H]12 (relative stereo) [Example 102, rel-(3R,3aR,6aS)-4-Dimethylaminoacetyl-1-methanesulfonyl-3-propyl-hexahydro-pyrrolo[3,2-b]pyrrol-2-one hydrochloride]

Row | SMILES | IC50 [nM]
20 | CCC[C@H]1C(=O)N(S(=O)(=O)c2ccc3ccccc3c2)[C@H]2CCN(C(=O)CCN3CCCCC3)[C@H]12 [Example 56, (3R,3aR,6aS)-1-(Naphthalene-2-sulfonyl)-4-(3-piperidin-1-yl-propionyl)-3-propyl-hexahydro-pyrrolo[3,2-b]pyrrol-2-one hydrochloride] | 81
